We go through 19 molecules from US7579356B2, “Thia-tetraazaacenaphthylene kinase inhibitors” (Janssen Pharmaceutica NV, priority 2005, dated 2009).

SMILES strings stand for the structures. Several values for one entry are separate records, joined by “and”; a condition that tells them apart may be missing. Equal values may be shown once.

One assay concerns the target T1, EGFR (Homo sapiens, UniProt P00533).
T1 construct: The intracellular portion of EGFR started at nucleotide 2189 (corresponding to amino acid 667) and ended at the termination codon; made in house; host or cells: Sf9 insect cells (baculovirus)
As to the kind of experiment: EGFR Kinase Assay. To be noted: for IC50: GST-EGFR, ATP 5 μM; for inhibition at 2 µM: test concentration of 2 μM, compounds without an IC50, read-out: EGFR inhibition in percent. It counts as biochemical. The method in brief: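 Potency came from triplicate 16-point half-log titrations starting at 200 uM, with IC50 fitted from % inhibition against log concentration, or % inhibition at 2 μM otherwise. Reaction: Sf9-made GST–EGFR cytoplasmic region (aa 667 onward), biotin-polyGluTyr, 5 μM ATP with 33P tracer, pH 8.0 Tris/Mg/vanadate/DTT, 30 °C for 1 h; captured on streptavidin Flashplates and counted.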

The target in another assay is T2, Lyn kinase (human) (Homo sapiens, UniProt P07948).
T2 construct: purchased Upstate Biotechnology, Lake Placid, N.Y
As to the kind of experiment: Lyn Kinase Assay. The settings on record: for inhibition at 2 µM / % Inhibition (Lyn): test concentration of 2 μM; for % Inhibition (Lyn): 2 µM. It counts as biochemical. The gist of the method:
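Radiometric filter-binding assay with recombinant human Lyn, poly(Glu,Tyr) substrate (0.1 mg/mL final), 5 μM ATP plus γ-33P-ATP in MOPS pH 7.5/Mg acetate buffer; 40 min at 30 °C, stopped with phosphoric acid, counted by scintillation. Reported as percent inhibition at 2 μM, with IC50 (μM) where determined.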

T2 sequence (P07948 whole entry): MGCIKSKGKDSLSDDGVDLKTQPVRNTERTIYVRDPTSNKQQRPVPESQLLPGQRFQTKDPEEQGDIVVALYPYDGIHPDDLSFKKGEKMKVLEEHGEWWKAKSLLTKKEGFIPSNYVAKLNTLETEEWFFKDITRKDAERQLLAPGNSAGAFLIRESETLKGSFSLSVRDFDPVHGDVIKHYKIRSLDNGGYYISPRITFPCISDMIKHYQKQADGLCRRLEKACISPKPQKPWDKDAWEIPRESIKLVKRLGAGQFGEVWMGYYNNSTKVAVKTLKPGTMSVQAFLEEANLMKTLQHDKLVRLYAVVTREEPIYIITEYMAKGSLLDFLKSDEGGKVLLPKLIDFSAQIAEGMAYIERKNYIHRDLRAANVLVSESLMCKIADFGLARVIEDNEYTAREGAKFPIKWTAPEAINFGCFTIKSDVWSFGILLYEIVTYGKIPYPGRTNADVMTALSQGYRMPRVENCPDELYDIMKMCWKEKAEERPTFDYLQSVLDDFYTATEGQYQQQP
T1 sequence (P00533 669-1210 limits assumed): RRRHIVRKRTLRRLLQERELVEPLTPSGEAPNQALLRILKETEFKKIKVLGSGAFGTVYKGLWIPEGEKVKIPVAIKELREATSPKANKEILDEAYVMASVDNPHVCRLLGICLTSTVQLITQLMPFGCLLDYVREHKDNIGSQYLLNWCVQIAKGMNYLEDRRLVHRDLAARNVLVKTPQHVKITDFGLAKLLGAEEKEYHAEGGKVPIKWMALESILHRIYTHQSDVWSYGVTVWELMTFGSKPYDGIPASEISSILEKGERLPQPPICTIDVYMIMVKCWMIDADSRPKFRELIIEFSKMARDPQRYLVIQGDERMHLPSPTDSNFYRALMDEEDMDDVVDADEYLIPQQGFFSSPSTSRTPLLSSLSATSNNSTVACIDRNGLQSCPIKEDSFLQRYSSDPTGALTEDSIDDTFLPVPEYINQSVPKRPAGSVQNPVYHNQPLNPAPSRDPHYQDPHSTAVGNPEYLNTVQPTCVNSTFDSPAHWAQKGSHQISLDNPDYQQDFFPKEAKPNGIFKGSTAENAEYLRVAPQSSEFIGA

The molecule `COc1cc(NC(=O)c2sc3ncnc4c3c2NC(=O)N4c2ccc(Oc3ccccc3)cc2)ccc1OCCN1CCCCC1` [Cpd 100, 4-oxo-5-(4-phenoxy-phenyl)-4,5-dihydro-3H-1-thia-3,5,6,8-tetraaza-acenaphthylene-2-carboxylic acid [3-methoxy-4-(2-piperidin-1-yl-ethoxy)-phenyl]-amide] returned an IC50 against EGFR of 15 nM. Besides, on Lyn kinase (human), the inhibition at 2 µM was determined as 40% and the “% Inhibition (Lyn)” value is 50%.
On the same counts, the results for `O=C(Nc1ccc(CN2CCCCC2)cc1)c1sc2ncnc3c2c1NC(=O)N3c1ccc(Oc2ccccc2)cc1` [Cpd 96, 4-oxo-5-(4-phenoxy-phenyl)-4,5-dihydro-3H-1-thia-3,5,6,8-tetraaza-acenaphthylene-2-carboxylic acid (4-piperidin-1-ylmethyl-phenyl)-amide] are 10 nM, 27% and 16.8%.
Taken in the same sequence, the figures for `O=C(Nc1ccc(CN2CCOCC2)cc1)c1sc2ncnc3c2c1NC(=O)N3c1ccc(Oc2ccccc2)cc1` [Cpd 97, 4-oxo-5-(4-phenoxy-phenyl)-4,5-dihydro-3H-1-thia-3,5,6,8-tetraaza-acenaphthylene-2-carboxylic acid (4-morpholin-4-ylmethyl-phenyl)-amide] were 13 nM, 36.5% and 26.6%.
Consider `COC(=O)c1sc2ncnc3c2c1NC(=O)N3c1c(Cl)ccc2c1OCO2` [Cpd 54, 5-(5-chloro-benzo[1,3]dioxol-4-yl)-4-oxo-4,5-dihydro-3H-1-thia-3,5,6,8-tetraaza-acenaphthylene-2-carboxylic acid methyl ester], for which the inhibition at 2 µM on EGFR worked out at 25%; on Lyn kinase (human), 52%.
`O=C(Nc1ccc(NCCCN2CCOCC2)nc1)c1sc2ncnc3c2c1NC(=O)N3c1cccc(Br)c1` [Cpd 64, 5-(3-bromo-phenyl)-4-oxo-4,5-dihydro-3H-1-thia-3,5,6,8-tetraaza-acenaphthylene-2-carboxylic acid [6-(3-morpholin-4-yl-propylamino)-pyridin-3-yl]-amide] showed a half-inhibitory concentration (IC50) against EGFR of 159 nM. At Lyn kinase (human), the inhibition at 2 µM turned out to be 26%.
With `O=C(Nc1ccc(CN2CCOCC2)cc1)c1sc2ncnc3c2c1NC(=O)N3c1ccc(Oc2ccccc2)c(F)c1` [Cpd 113, 5-(3-fluoro-4-phenoxy-phenyl)-4-oxo-4,5-dihydro-3H-1-thia-3,5,6,8-tetraaza-acenaphthylene-2-carboxylic acid (4-morpholin-4-ylmethyl-phenyl)-amide], the IC50 against EGFR is 21 nM. On Lyn kinase (human), the inhibition at 2 µM is 60% and the “% Inhibition (Lyn)” value amounted to 55%.
As for `CN1CCN(Cc2ccc(NC(=O)c3sc4ncnc5c4c3NC(=O)N5c3ccc(OCc4ccccn4)c(Cl)c3)cc2)CC1` [Cpd 90, 5-[3-chloro-4-(pyridin-2-ylmethoxy)-phenyl]-4-oxo-4,5-dihydro-3H-1-thia-3,5,6,8-tetraaza-acenaphthylene-2-carboxylic acid [4-(4-methyl-piperazin-1-ylmethyl)-phenyl]-amide], the IC50 at EGFR turned out to be 112 nM. In addition, the inhibition at 2 µM at Lyn kinase (human) is -8.1%.
In the case of `O=C(Nc1ccc(CN2CCOCC2)cc1)c1sc2ncnc3c2c1NC(=O)N3c1ccc(N2CCOCC2)cc1` [Cpd 123, 5-(4-morpholin-4-yl-phenyl)-4-oxo-4,5-dihydro-3H-1-thia-3,5,6,8-tetraaza-acenaphthylene-2-carboxylic acid (4-morpholin-4-ylmethyl-phenyl)-amide], the values for the inhibition at 2 µM at EGFR and on Lyn kinase (human) were 11% and 55%, respectively. Besides, on Lyn kinase (human) (value in parentheses), the IC50 came out at 1440 nM.
Consider `COc1ccc(Cl)c(N2C(=O)Nc3c(C(=O)Nc4ccc(OC)c(OC)c4)sc4ncnc2c34)c1` [Cpd 49, 5-(2-chloro-5-methoxy-phenyl)-4-oxo-4,5-dihydro-3H-1-thia-3,5,6,8-tetraaza-acenaphthylene-2-carboxylic acid (3,4-dimethoxy-phenyl)-amide], for which the inhibition at 2 µM on EGFR came out at 25%; on Lyn kinase (human), 50%.
On EGFR, `O=C(Nc1ccc(CN2CCOCC2)cc1)c1sc2ncnc3c2c1NC(=O)N3c1ccc(Sc2ccccc2)cc1` [Cpd 178, 4-oxo-5-(4-phenylsulfanyl-phenyl)-4,5-dihydro-3H-1-thia-3,5,6,8-tetraaza-acenaphthylene-2-carboxylic acid (4-morpholin-4-ylmethyl-phenyl)-amide] came in with an IC50 of 77 nM.
As for `O=C(Nc1ccc(CN2CCOCC2)cc1)c1sc2ncnc3c2c1NC(=O)N3c1c(Cl)ccc2c1OCO2` [Cpd 62, 5-(5-chloro-benzo[1,3]dioxol-4-yl)-4-oxo-4,5-dihydro-3H-1-thia-3,5,6,8-tetraaza-acenaphthylene-2-carboxylic acid (4-morpholin-4-ylmethyl-phenyl)-amide], on EGFR, the IC50 was 356 nM. In addition, the inhibition at 2 µM at Lyn kinase (human) was determined as 92%.
As for `O=C(Nc1ccc(CN2CCOCC2)cc1)c1sc2ncnc3c2c1NC(=O)N3c1c(Cl)cccc1Cl` [Cpd 104, 5-(2,6-dichloro-phenyl)-4-oxo-4,5-dihydro-3H-1-thia-3,5,6,8-tetraaza-acenaphthylene-2-carboxylic acid (4-morpholin-4-ylmethyl-phenyl)-amide], the inhibition at 2 µM at EGFR came to 41%; on Lyn kinase (human), 70%. Also, at Lyn kinase (human), the “% Inhibition (Lyn)” value worked out at 69%.
Consider `O=C(Nc1ccc(CN2CCCCC2)cc1)c1sc2ncnc3c2c1NC(=O)N3c1ccc(Sc2ccccc2)cc1` [Cpd 169, 4-oxo-5-(4-phenylsulfanyl-phenyl)-4,5-dihydro-3H-1-thia-3,5,6,8-tetraaza-acenaphthylene-2-carboxylic acid (4-piperidin-1-ylmethyl-phenyl)-amide], for which, on EGFR, the IC50 worked out at 29 nM.
As to `COc1ccc(Cl)c(N2C(=O)Nc3c(C(=O)Nc4ccc(CN5CCOCC5)cc4)sc4ncnc2c34)c1` [Cpd 51, 5-(2-chloro-5-methoxy-phenyl)-4-oxo-4,5-dihydro-3H-1-thia-3,5,6,8-tetraaza-acenaphthylene-2-carboxylic acid (4-morpholin-4-ylmethyl-phenyl)-amide], the inhibition at 2 µM is 53% at EGFR and 70% against Lyn kinase (human).
On to `O=C(Nc1ccc(CN2CCCCC2)cc1)c1sc2ncnc3c2c1NC(=O)N3c1ccc(OCc2ccccn2)c(Cl)c1` [Cpd 89, 5-[3-chloro-4-(pyridin-2-ylmethoxy)-phenyl]-4-oxo-4,5-dihydro-3H-1-thia-3,5,6,8-tetraaza-acenaphthylene-2-carboxylic acid (4-piperidin-1-ylmethyl-phenyl)-amide], for which the IC50 on EGFR was found to be 34 nM. Besides, on Lyn kinase (human), the “% Inhibition (Lyn)” value was 4% and 0.5%.
Turning to `COc1cc(N2C(=O)Nc3c(C(=O)Nc4ccc(CN5CCCC5)cc4)sc4ncnc2c34)c(Cl)cc1Cl` [Cpd 43, 5-(2,4-dichloro-5-methoxy-phenyl)-4-oxo-4,5-dihydro-3H-1-thia-3,5,6,8-tetraaza-acenaphthylene-2-carboxylic acid (4-pyrrolidin-1-ylmethyl-phenyl)-amide], the inhibition at 2 µM was 47% at EGFR and 71% on Lyn kinase (human).
For the molecule `COc1cc(N2C(=O)Nc3c(C(=O)Nc4ccc(CN5CCN(C)CC5)cc4)sc4ncnc2c34)c(Cl)cc1Cl` [Cpd 60], the inhibition at 2 µM was determined as 29% on EGFR and 50% on Lyn kinase (human).
In the case of `CN1CCN(Cc2ccc(NC(=O)c3sc4ncnc5c4c3NC(=O)N5c3ccc(Oc4ccccc4)cc3)cc2)CC1` [Cpd 98, 4-oxo-5-(4-phenoxy-phenyl)-4,5-dihydro-3H-1-thia-3,5,6,8-tetraaza-acenaphthylene-2-carboxylic acid [4-(4-methyl-piperazin-1-ylmethyl)-phenyl]-amide], the IC50 at EGFR was found to be 22 nM. On Lyn kinase (human), the inhibition at 2 µM worked out at 30.7% and the “% Inhibition (Lyn)” value was 50.0%.
Take `COc1ccc(Cl)c(N2C(=O)Nc3c(C(=O)Nc4ccc(OCCN5CCOCC5)c(OC)c4)sc4ncnc2c34)c1` [Cpd 50, 5-(2-chloro-5-methoxy-phenyl)-4-oxo-4,5-dihydro-3H-1-thia-3,5,6,8-tetraaza-acenaphthylene-2-carboxylic acid [3-methoxy-4-(2-morpholin-4-yl-ethoxy)-phenyl]-amide]: the inhibition at 2 µM was 30% at EGFR and 60% at Lyn kinase (human).

As usually defined, the IC50 is the concentration at which inhibition is half-maximal. The inhibition is the drop in the measured response relative to a control, in per cent.
